Results reported in patent US20240425502A1, “BICYCLIC HETEROAROMATIC COMPOUNDS AND THEIR USE AS PEST CONTROL AGENTS” (PI INDUSTRIES LTD., priority 2021, published 2024).

Legend:
Assay type in all cases: in vivo
Myzus persicae = Myzus persicae leaf dip test (capsicum leaves, third instar nymphs); settings: foliar, 72 h after release, dead and moribund combined, compared to untreated control, read-out: percent mortality
Nilaparvata lugens = Nilaparvata lugens seedling dip test (paddy seedlings, third instar nymphs); settings: 72 h after release, dead and moribund combined, compared to untreated control, read-out: percent mortality
Bemisia tabaci = Bemisia tabaci leaf dip test (brinjal leaves, whitefly adults); settings: foliar, 72 h after release, dead and moribund combined, compared to untreated control, read-out: percent mortality
Description: The leaf dip method was used for testing, wherein the required quantity of the compound was weighed and dissolved in a tube containing a solvent solution. The tube was put on a vortex at 2000 rpm for 90 min for proper mixing and then the mixture was diluted with a 0.01% Triton-X solution to the desired test concentration. Brinjal leaves were dipped in the compound solution for 10 seconds, shade dried for 20 min and then placed, with the abaxial side of the leaf up, on 4 ml of a 1% agar-agar solution in respective container caps. Known numbers of freshly emerged whitefly adults were collected, using a modified aspirator, and released into a perforated container in which the cap containing the treated leaf was placed. The containers were kept in a plant growth chamber at a temperature of 25° C. and a relative humidity of 70%. Observations on dead, moribund and alive adults were recorded 72 h after the release. Percent mortality was calculated by combining dead and moribund adults and comparing the result to the one of the untreated control. The compounds 32 53 58 79 80 81 82 84 87 88 89 94 95 96 101 102 103 104 105 106 107 108 109 112 113 114 115 116 117 118 119 120 123 124 125 126 127 130 135 138 139 140 144 145 147 150 154 156 158 159 164 167 168 169 170 171 188 189 191 198 199 200 201 202 206 207 208 209 210 213 216 223 224 225 227 228 231 232 233 234 235 236 238 242 243 244 246 and 247 recorded≥70 percent mortality @ 300 PPM.

SMILES | mortality at 300 ppm (Myzus persicae) [%] | mortality at 300 ppm (Nilaparvata lugens) [%] | mortality at 300 ppm (Bemisia tabaci) [%]
COc1ccccc1-n1c(=O)nc2n(Cc3cnc(Cl)s3)cccc-2c1=O [Compound 73, 8-((2-chlorothiazol-5-yl)methyl)-3-(2-methoxyphenyl)pyrido[2,3-d]pyrimidine-2,4(3H,8H)-dione] | ≥ 70 | ≥ 70 | 
O=c1nc2n(Cc3cnc(Cl)s3)cccc-2c(=O)n1-c1ccc(F)c(Cl)c1 [Compound 165, 3-(3-chloro-4-fluorophenyl)-8-((2-chlorothiazol-5-yl)methyl)pyrido[2,3-d]pyrimidine-2,4(3H,8H)-dione] |  | ≥ 70 | 
COc1cc(-n2c(=O)nc3n(Cc4cnc(Cl)s4)cccc-3c2=O)ccc1Cl [Compound 167, 3-(4-chloro-3-methoxyphenyl)-8-((2-chlorothiazol-5-yl)methyl)pyrido[2,3-d]pyrimidine-2,4(3H,8H)-dione] |  |  | ≥ 70
O=c1nc2n(Cc3cnc(Cl)nc3)cccc-2c(=O)n1-c1cccc(Cl)c1F [Compound 226, 3-(3-chloro-2-fluorophenyl)-8-((2-chloropyrimidin-5-yl)methyl)pyrido[2,3-d]pyrimidine-2,4(3H,8H)-dione] | ≥ 70 | ≥ 70 | 
O=c1nc2n(Cc3cnc(Cl)s3)cccc-2c(=O)n1-c1cccc(F)c1F [Compound 214, 8-((2-chlorothiazol-5-yl)methyl)-3-(2,3-difluorophenyl)pyrido[2,3-d]pyrimidine-2,4(3H,8H)-dione] | ≥ 70 | ≥ 70 | 
O=c1nc2n(Cc3cnc(Cl)nc3)cccc-2c(=O)n1-c1cccc(F)c1F [Compound 205, 8-((2-chloropyrimidin-5-yl)methyl)-3-(2,3-difluorophenyl)pyrido[2,3-d]pyrimidine-2,4(3H,8H)-dione] | ≥ 70 | ≥ 70 | 
O=c1nc2n(Cc3cnc(Cl)s3)cccc-2c(=O)n1-c1ccc(F)cc1Cl [Compound 237, 3-(2-chloro-4-fluorophenyl)-8-((2-chlorothiazol-5-yl)methyl)pyrido[2,3-d]pyrimidine-2,4(3H,8H)-dione] |  | ≥ 70 | 
O=c1nc2n(Cc3cnc(Cl)nc3)cccc-2c(=O)n1-c1cccc(C(F)F)c1 [Compound 203, 8-((2-chloropyrimidin-5-yl)methyl)-3-(3-(difluoromethyl)phenyl)pyrido[2,3-d]pyrimidine-2,4(3H,8H)-dione] | ≥ 70 | ≥ 70 | 
O=c1nc2n(Cc3cnc(Cl)s3)cccc-2c(=O)n1-c1ccccc1 [Compound 62, 8-((2-chlorothiazol-5-yl)methyl)-3-phenylpyrido[2,3-d]pyrimidine-2,4(3H,8H)-dione] |  | ≥ 70 | 
O=c1nc2n(Cc3ccc(Cl)nc3)cccc-2c(=O)n1-c1ccc(F)c(C(F)(F)F)c1 [Compound 222, 8-((6-chloropyridin-3-yl)methyl)-3-(4-fluoro-3-(trifluoromethyl)phenyl)pyrido[2,3-d]pyrimidine-2,4(3H,8H)-dione] | ≥ 70 |  | 
O=c1nc2n(Cc3cnc(Cl)s3)cccc-2c(=O)n1-c1ccc(Cl)cc1F [Compound 193, 3-(4-chloro-2-fluorophenyl)-8-((2-chlorothiazol-5-yl)methyl)pyrido[2,3-d]pyrimidine-2,4(3H,8H)-dione] | ≥ 70 | ≥ 70 | 
O=c1nc2n(Cc3cnc(Cl)nc3)cccc-2c(=O)n1-c1ccc(OC(F)F)cc1 [Compound 160, 8-((2-chloropyrimidin-5-yl)methyl)-3-(4-(difluoromethoxy)phenyl)pyrido[2,3-d]pyrimidine-2,4(3H,8H)-dione] | ≥ 70 | ≥ 70 | 
O=c1nc2n(Cc3ccc(Cl)nc3)cccc-2c(=O)n1-c1ccc(Cl)c(C(F)(F)F)c1 [Compound 219, 3-(4-chloro-3-(trifluoromethyl)phenyl)-8-((6-chloropyridin-3-yl)methyl)pyrido[2,3-d]pyrimidine-2,4(3H,8H)-dione] |  | ≥ 70 | 
O=c1nc2n(Cc3cnc(Cl)nc3)cccc-2c(=O)n1-c1ccsc1 [Compound 179, 8-((2-chloropyrimidin-5-yl)methyl)-3-(thiophen-3-yl)pyrido[2,3-d]pyrimidine-2,4(3H,8H)-dione] | ≥ 70 | ≥ 70 | 
O=c1nc2n(Cc3cnc(Cl)s3)cccc-2c(=O)n1-c1cccc(F)c1 [Compound 143, 8-((2-chlorothiazol-5-yl)methyl)-3-(3-fluorophenyl)pyrido[2,3-d]pyrimidine-2,4(3H,8H)-dione] |  | ≥ 70 | 
O=c1nc2n(Cc3cnc(Cl)s3)cccc-2c(=O)n1-c1ccc(OC(F)(F)F)c(Cl)c1 [Compound 212, 3-(3-chloro-4-(trifluoromethoxy)phenyl)-8-((2-chlorothiazol-5-yl)methyl)pyrido[2,3-d]pyrimidine-2,4(3H,8H)-dione] | ≥ 70 | ≥ 70 | 
COc1cccc(-n2c(=O)nc3n(Cc4cnc(Cl)s4)cccc-3c2=O)c1 [Compound 72, 8-((2-chlorothiazol-5-yl)methyl)-3-(3-methoxyphenyl)pyrido[2,3-d]pyrimidine-2,4(3H,8H)-dione] |  | ≥ 70 | 
O=c1nc2n(Cc3cnc(Cl)s3)cccc-2c(=O)n1-c1cc(F)cc(F)c1 [Compound 141, 8-((2-chlorothiazol-5-yl)methyl)-3-(3,5-difluorophenyl)pyrido[2,3-d]pyrimidine-2,4(3H,8H)-dione] | ≥ 70 | ≥ 70 | 
O=c1nc2n(Cc3cnc(Cl)nc3)cccc-2c(=O)n1-c1ccc(C2CC2)cc1 [Compound 245, 8-((2-chloropyrimidin-5-yl)methyl)-3-(4-cyclopropylphenyl)pyrido[2,3-d]pyrimidine-2,4(3H,8H)-dione] |  | ≥ 70 | 
O=c1nc2n(Cc3ccc(C(F)(F)F)nc3)cccc-2c(=O)n1-c1cccc(C(F)(F)F)c1 [Compound 172, 3-(3-(trifluoromethyl)phenyl)-8-((6-(trifluoromethyl)pyridin-3-yl)methyl)pyrido[2,3-d]pyrimidine-2,4(3H,8H)-dione] | ≥ 70 |  | 
O=c1nc2n(Cc3cnc(Cl)s3)cccc-2c(=O)n1-c1c(F)cccc1F [Compound 215, 8-((2-chlorothiazol-5-yl)methyl)-3-(2,6-difluorophenyl)pyrido[2,3-d]pyrimidine-2,4(3H,8H)-dione] |  | ≥ 70 | 
O=c1nc2n(Cc3ccc(Cl)nc3)cccc-2c(=O)n1-c1cccc(OCC(F)(F)F)c1 [Compound 211, 8-((6-chloropyridin-3-yl)methyl)-3-(3-(2,2,2-trifluoroethoxy)phenyl)pyrido[2,3-d]pyrimidine-2,4(3H,8H)-dione] | ≥ 70 | ≥ 70 | 
O=c1nc2n(Cc3cnc(Cl)s3)cccc-2c(=O)n1-c1cccc(Cl)c1F [Compound 217, 3-(3-chloro-2-fluorophenyl)-8-((2-chlorothiazol-5-yl)methyl)pyrido[2,3-d]pyrimidine-2,4(3H,8H)-dione] | ≥ 70 | ≥ 70 | 
Cc1cccc(-n2c(=O)nc3n(Cc4cnc(Cl)nc4)cccc-3c2=O)c1 [Compound 128, 8-((2-chloropyrimidin-5-yl)methyl)-3-(m-tolyl)pyrido[2,3-d]pyrimidine-2,4(3H,8H)-dione] |  | ≥ 70 | 
O=c1nc2n(Cc3cnc(Cl)s3)cccc-2c(=O)n1-c1cccc(C(F)F)c1 [Compound 187, 8-((2-chlorothiazol-5-yl)methyl)-3-(3-(difluoromethyl)phenyl)pyrido[2,3-d]pyrimidine-2,4(3H,8H)-dione] | ≥ 70 | ≥ 70 | 
O=c1nc2n(Cc3cnc(Cl)s3)cccc-2c(=O)n1-c1ccc(F)cc1 [Compound 153, 8-((2-chlorothiazol-5-yl)methyl)-3-(4-fluorophenyl)pyrido[2,3-d]pyrimidine-2,4(3H,8H)-dione] |  | ≥ 70 | 
O=c1nc2n(Cc3ccc(Cl)nc3)cccc-2c(=O)n1-c1ccc(OC(F)(F)F)c(Cl)c1 [Compound 195, 3-(3-chloro-4-(trifluoromethoxy)phenyl)-8-((6-chloropyridin-3-yl)methyl)pyrido[2,3-d]pyrimidine-2,4(3H,8H)-dione] | ≥ 70 | ≥ 70 | 
O=c1nc2n(Cc3cnc(Cl)s3)cccc-2c(=O)n1-c1cccc(Br)c1 [Compound 249, 3-(3-bromophenyl)-8-((2-chlorothiazol-5-yl)methyl)pyrido[2,3-d]pyrimidine-2,4(3H,8H)-dione] |  | ≥ 70 | 
O=c1nc2n(Cc3ccc(C(F)(F)F)nc3)cccc-2c(=O)n1-c1ccccc1F [Compound 162, 3-(2-fluorophenyl)-8-((6-(trifluoromethyl)pyridin-3-yl)methyl)pyrido[2,3-d]pyrimidine-2,4(3H,8H)-dione] |  | ≥ 70 | 
O=c1nc2n(Cc3cnc(Cl)s3)cccc-2c(=O)n1-c1cccc(OC(F)F)c1 [Compound 151, 8-((2-chlorothiazol-5-yl)methyl)-3-(3-(difluoromethoxy)phenyl)pyrido[2,3-d]pyrimidine-2,4(3H,8H)-dione] | ≥ 70 | ≥ 70 | 
